Patent US11071730B2, “Substituted 6-azabenzimidazole compounds” (Gilead Sciences, Inc., priority 2018, dated 2021)

These compounds were tested against human HPK1 (MAP4K1) (Homo sapiens (Human), UniProt Q92918) (assay: HPK1 IC50 Assay (TR-FRET biochemical kinase assay, STK S1 peptide substrate)). Conditions: recombinant human HPK1 kinase domain 0.15 nM, 10 μM ATP, 1 μM STK S1 peptide; geometric mean.
Chain of human HPK1 (MAP4K1) (Q92918 17-274): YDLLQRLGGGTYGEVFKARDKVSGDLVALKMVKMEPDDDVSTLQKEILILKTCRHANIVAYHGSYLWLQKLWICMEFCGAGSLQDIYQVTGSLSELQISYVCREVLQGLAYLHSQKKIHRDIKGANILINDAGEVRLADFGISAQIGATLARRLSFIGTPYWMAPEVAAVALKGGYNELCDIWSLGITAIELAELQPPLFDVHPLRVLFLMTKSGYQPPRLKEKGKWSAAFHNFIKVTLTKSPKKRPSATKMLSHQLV
Method: The enzymatic activity of human HPK1 (MAP4K1) was monitored in a biochemical assay in the presence or absence of compounds and using a synthetic peptide substrate. An increase in phosphorylation of the peptide by HPK1 was indicative of its kinase activity.
Recombinant HPK1 kinase domain produced via baculovirus infection of insect cells was obtained from Proteros (Proteros Biostructures #PR-0322) and was pre-activated in the presence of 2 mM ATP (Sigma-Aldrich, cat #GE27-2056-01) and 2 mM magnesium chloride for 16 hours at 4° C. The protein reaction mixture was then loaded to a desalting column (Thermo Fisher Scientific, Cat #89889) to remove excess ATP. HPK1 was eluted with buffer containing 20 mM Tris (2-Amino-2-(hydroxymethyl)propane-1,3-diol) pH 8.0, 150 mM NaCl, 2 mM dithiothreitol and 5% glycerol, and was frozen at −80° C. for later use.
Ten nanoliters of test compounds dissolved in DMSO at various concentrations were dispensed into a 384-well ProxiPlate (PerkinElmer #6008289). Five microliters of a solution of recombinant HPK1 diluted in HPK1 kinase assay buffer (50 mM BES [N,N-Bis(2-hydroxyethyl)-2-aminoethanesulfonic acid], pH 7.0; 10 mM magnesium chloride; 0.01% Triton X-100; 1 mM dithiothreitol; 0.01% bovine serum albumin; 0.1 mM sodium orthovanadate) was added to the compound-containing plate and was incubated for 15 minutes at 25° C. Five microliters of a mixture of ATP (Sigma-Aldrich #A6559) and peptide substrate STK S1 (Cisbio #61ST1BLC) diluted in HPK1 kinase assay buffer was then added to start the reaction. Final concentrations were 0.15 nM for HPK1, 10 μM for ATP, and 1 μM for the STK S1 peptide substrate. The reaction mixture was incubated at 25° C. for 3 hours and was stopped with the addition of 10 μl of an EDTA (Ethylenediaminetetraacetic acid)-containing detection buffer (Cisbio #62SDBRDF) supplemented with Europium cryptate-labeled anti-phospho-serine/threonine antibodies (Cisbio #62ST1PEJ) and XL665-labeled streptavidin (Cisbio #610SAXLG). The mixture was incubated for 16 hours at room temperature and peptide phosphorylation was measured by time-resolved fluorescence energy transfer (665 nm/620 nm) on an Envision plate reader (PerkinElmer).
Data in Table 1 were normalized based on positive (staurosporine) and negative (DMSO) controls. Least squares curve fittings were performed using a four-parameter variable slope nonlinear regression model. IC50 is defined as the concentration of compound required to inhibit 50% of maximum phosphorylation. IC50 values from multiple experiments were averaged by geometric mean and the standard deviation was calculated.
Work on `Cc1cc(Nc2nc(-c3ccc4c(c3)N([C@H]3C[C@@H](N5CCC(C)(C)C5)C3)C(=O)C43CCN(C(=O)C(C)(C)CO)CC3)cc3ncn(C(C)C)c23)c(F)cn1` [Example 131] yielded an IC50 of 0.6 nM. `CNC(=O)c1ccc(F)c(Nc2nc(-c3ccc4c(c3)N([C@H]3C[C@@H](N5CCCCC5)C3)C(=O)C4(C)C)cc3ncn(C(C)C)c23)n1` [Example 104] showed an IC50 of 1.4 nM. Work on `CO[C@H]1C[C@@H](C(=O)N2CCC3(CC2)C(=O)N([C@H]2C[C@@H](N4CCC(C)(C)C4)C2)c2cc(-c4cc5ncn(C(C)C)c5c(Nc5ccncc5F)n4)ccc23)C1` [Example 156] yielded an IC50 of 0.2 nM. With `CC(=O)N1CCC2(CC1)C(=O)N([C@H]1C[C@@H](N3CCCC4(CCC4)C3)C1)c1cc(-c3cc4ncn(C(C)C)c4c(Nc4ccncc4F)n3)ccc12` [Example 182] the IC50 was 0.3 nM. For `CC(C)n1cnc2cc(-c3ccc4c(c3)N([C@H]3C[C@@H](N5CCC[C@@H](C)C5)C3)C(=O)C4(C)C)nc(Nc3ccncc3F)c21` [Example 191], the IC50 was 0.9 nM. Work on `CC(C)n1cnc2cc(-c3ccc4c(c3)N([C@H]3C[C@@H](N5CC6CCC(C6)C5)C3)C(=O)C43CCN(C(=O)C4COC4)CC3)nc(Nc3ccncc3F)c21` [Example 124] yielded an IC50 of 0.07 nM. For `CC(C)n1cnc2cc(-c3ccc4c(c3)N([C@H]3C[C@@H](N5CC[C@@H](C)C5)C3)C(=O)C4(C)C)nc(Nc3ccncc3F)c21` [Example 192], the IC50 was 1.1 nM. With `CO[C@@H](C)C(=O)N1CCC2(CC1)C(=O)N([C@H]1C[C@@H](N3CCCCC3)C1)c1cc(-c3cc4ncn(C(C)C)c4c(Nc4ccncc4F)n3)ccc12` [Example 152] the IC50 was 0.5 nM. `CC(C)n1cnc2cc(-c3ccc4c(c3)N([C@H]3C[C@@H](N5CCC(C)(C)C5)C3)C(=O)C43CCN(C(=O)c4nccs4)CC3)nc(Nc3ccncc3F)c21` [Example 162] showed an IC50 of 0.1 nM. `CC(C)n1cnc2cc(-c3ccc4c(c3)N([C@H]3C[C@@H](N5CCC(C)(C)C5)C3)C(=O)C4(C)C)nc(Nc3ccncc3F)c21` [Example 189] showed an IC50 of 0.6 nM. `CC(C)n1cnc2cc(-c3ccc4c(c3)N([C@H]3C[C@@H](N5C[C@H]6CC[C@H]6C5)C3)C(=O)C43CCN(C(=O)C(C)(C)CO)CC3)nc(Nc3ccncc3F)c21` [Example 112] gave an IC50 of 0.08 nM. With `CC(=O)N1CCC2(CC1)C(=O)N([C@H]1C[C@@H](N3CCCCC3)C1)c1cc(-c3cc4ncn(C(C)C)c4c(Nc4cc(N(C)C)ncc4F)n3)ccc12` [Example 99] the IC50 was 1.6 nM. Compound `CCC1(C(=O)N2CCC3(CC2)C(=O)N([C@H]2C[C@@H](N4CCCCC4)C2)c2cc(-c4cc5ncn(C(C)C)c5c(Nc5ccncc5F)n4)ccc23)COC1` [Example 138] has an IC50 of 0.2 nM. In the case of `CC(C)n1cnc2cc(-c3ccc4c(c3)N([C@H]3C[C@@H](N5CCCCC5)C3)C(=O)C43CCN(C(=O)C(C)(C)CF)CC3)nc(Nc3ccncc3F)c21` [Example 139], the IC50 is reported as 0.5 nM. Compound `CC(C)n1cnc2cc(-c3ccc4c(c3)N([C@H]3C[C@@H](N5C6COCC5C6)C3)C(=O)C4(C)C)nc(Nc3ccncc3F)c21` [Example 190] has an IC50 of 2.1 nM. Compound `CC(=O)N1CCC2(CC1)C(=O)N([C@H]1C[C@@H](N3CC4CCC(C4)C3)C1)c1cc(-c3cc4ncn(C(C)C)c4c(Nc4ccncc4F)n3)ccc12` [Example 181] has an IC50 of 0.1 nM. `CCn1cnc2cc(-c3ccc4c(c3)N([C@H]3C[C@@H](N5CCCCC5)C3)C(=O)C43CCN(C(=O)C45CC(F)(C4)C5)CC3)nc(Nc3ccncc3F)c21` [Example 151] showed an IC50 of 0.3 nM. In the case of `CC(C)n1cnc2cc(-c3ccc4c(c3)N([C@H]3C[C@@H](N5CCCCC5)C3)C(=O)C43CCN(C(=O)[C@@H]4CCC[C@@H]4O)CC3)nc(Nc3ccncc3F)c21` [Example 109], the IC50 is reported as 0.3 nM.

Same assay, conditions: recombinant human HPK1 kinase domain 0.15 nM, 10 μM ATP, 1 μM STK S1 peptide; geometric mean of multiple experiments
With `CCn1cnc2cc(-c3ccc4c(c3)N([C@H]3C[C@@H](N5CCC(C)(C)C5)C3)C(=O)C43CCN(C4COC4)CC3)nc(Nc3ccncc3F)c21` [Example 87] the IC50 was 0.7 nM. `CC(C)n1cnc2cc(-c3ccc4c(c3)N([C@H]3C[C@@H](N5CC6CC6C5)C3)C(=O)C4(C)C)nc(Nc3ccncc3F)c21` (stereo partly shown) [Example 61] gave an IC50 of 0.8 nM. `CC(C)n1cnc2cc(-c3ccc4c(c3)N([C@H]3C[C@@H](N5CC[C@H](C)C5)C3)C(=O)C43CCN(C4COC4)CC3)nc(Nc3ccncc3F)c21` [Example 47] showed an IC50 of 1.6 nM. With `CC(C)n1cnc2cc(-c3ccc4c(c3)N([C@H]3C[C@@H](N5CCC(C)(C)C5)C3)C(=O)C43CCOCC3)nc(Nc3ccncc3F)c21` [Example 71] the IC50 was 0.2 nM. Work on `CC(C)n1cnc2cc(-c3ccc4c(c3)N([C@H]3C[C@@H](N5CCC(C)(C)C5)C3)C(=O)C43CCN(C(=O)C4CCCOC4)CC3)nc(Nc3ccncc3F)c21` (stereo partly shown) [Example 25] yielded an IC50 of 0.2 nM. For `CC(C)n1cnc2cc(-c3ccc4c(c3)N([C@H]3C[C@@H](N5CCC(C)(C)C5)C3)C(=O)C43CCN(C(=O)[C@@H]4CCOC4)CC3)nc(Nc3ccncc3F)c21` [Example 17], the IC50 was 0.3 nM. `CC(C)n1cnc2cc(-c3cnc4c(c3)N([C@H]3C[C@@H](N5CCCCC5)C3)C(=O)C4(C)C)nc(Nc3ccncc3F)c21` [Example 51] gave an IC50 of 13.2 nM. In the case of `CC(C)n1cnc2cc(-c3ccc4c(c3)N([C@H]3C[C@@H](N5CCC(C)(C)C5)C3)C(=O)C43CCN(C(=O)[C@H]4CCO4)CC3)nc(Nc3ccncc3F)c21` (single isomer, unassigned) [Example 78B, 1-((1s,3s)-3-(3,3-dimethylpyrrolidin-1-yl)cyclobutyl)-6-(4-((3-fluoropyridin-4-yl)amino)-3-isopropyl-3H-imidazo[4,5-c]pyridin-6-yl)-1′-(oxetane-2-carbonyl)spiro[indoline-3,4′-piperidin]-2-one], the IC50 is reported as 0.3 nM. `CC(=O)N1CCC2(CC1)C(=O)N([C@H]1C[C@@H](N3CCCCC3)C1)c1cc(-c3cc4ncn(C(C)C)c4c(Nc4ncc(F)cc4F)n3)ccc12` [Example 69] gave an IC50 of 5.6 nM. In the case of `CC(C)n1cnc2cc(-c3ccc4c(c3)N([C@H]3C[C@@H](N5CCCCCC5)C3)C(=O)C4(C)C)nc(Nc3ccncc3F)c21` [Example 59], the IC50 is reported as 0.09 nM. `COC(=O)N1CCC2(CC1)C(=O)N([C@H]1C[C@@H](N3CCCCC3)C1)c1cc(-c3cc4ncn(C(C)C)c4c(Nc4ccncc4F)n3)ccc12` [Example 30] gave an IC50 of 0.6 nM. `CC(C)n1cnc2cc(-c3ccc4c(c3)N([C@H]3C[C@@H](N5CCC(C)(C)C5)C3)C(=O)C43CCN(C(=O)[C@H]4OCC[C@H]4C)CC3)nc(Nc3ccncc3F)c21` [Example 19B, 1-((1s,3R)-3-(3,3-dimethylpyrrolidin-1-yl)cyclobutyl)-6-(4-((3-fluoropyridin-4-yl)amino)-3-isopropyl-3H-imidazo[4,5-c]pyridin-6-yl)-1′-((2S,3R)-3-methyltetrahydrofuran-2-carbonyl)spiro[indoline-3,4′-piperidin]-2-one] gave an IC50 of 0.1 nM. With `CC(=O)N1CCC2(CC1)C(=O)N([C@H]1C[C@@H](N3CCCCC3)C1)c1cc(-c3cc4ncn(C(C)C)c4c(Nc4ccc(F)nc4F)n3)ccc12` [Example 70] the IC50 was 0.1 nM. Compound `CC(C)n1cnc2cc(-c3ccc4c(c3)N([C@H]3C[C@@H](N5CCCCC5)C3)C(=O)C43CCN(C(=O)C45CC(F)(C4)C5)CC3)nc(Nc3ccncc3F)c21` [Example 28] has an IC50 of 0.1 nM. In the case of `CC(C)n1cnc2cc(-c3ccc4c(c3)N([C@H]3C[C@@H](N5CCC(C)(C)C5)C3)C(=O)C43CCN(C(=O)[C@@H]4CCCO4)CC3)nc(Nc3ccncc3F)c21` [Example 13], the IC50 is reported as 0.2 nM. `CC(C)n1cnc2cc(-c3ccc4c(c3)N([C@H]3C[C@@H](N5CCC(C)(C)C5)C3)C(=O)C43CCN(C(=O)[C@@H]4CC[C@H](C)O4)CC3)nc(Nc3ccncc3F)c21` [Example 20B, 1-((1s,3R)-3-(3,3-dimethylpyrrolidin-1-yl)cyclobutyl)-6-(4-((3-fluoropyridin-4-yl)amino)-3-isopropyl-3H-imidazo[4,5-c]pyridin-6-yl)-1′-((2S,5 S)-5-methyltetrahydrofuran-2-carbonyl)spiro[indoline-3,4′-piperidin]-2-one] was tested, and the IC50 was 0.05 nM. `CC(C)n1cnc2cc(-c3ccc4c(c3)N([C@H]3C[C@@H](N5CC6CC(C6)C5)C3)C(=O)C43CCN(C(=O)C4(C)COC4)CC3)nc(Nc3ccncc3F)c21` [Example 7] was tested, and the IC50 was 0.2 nM. In the case of `CC(=O)N1CCC2(CC1)C(=O)N([C@H]1C[C@@H](N3CCCCC3)C1)c1cc(-c3cc4ncn(C(C)C)c4c(Nc4cc(C(=O)NC(C)C)ncc4F)n3)ccc12` [Example 74], the IC50 is reported as 6.6 nM. With `CC(C)n1cnc2cc(-c3ccc4c(c3)N([C@H]3C[C@@H](N5CCCC(C)(C)C5)C3)C(=O)C43CCN(C4COC4)CC3)nc(Nc3ccncc3F)c21` [Example 45] the IC50 was 0.2 nM.
